{
  "source": "patent US8906826B2",
  "about": "“Herbicidal compositions comprising 4-amino-3-chloro-5-fluoro-6-(4-chloro-2-fluoro-3-methoxyphenyl) pyridine-2-carboxylic acid or a derivative thereof and imidazolinones” (Dow AgroSciences, LLC, priority 2012, dated 2014)",
  "key": {"SONAR": {"test_system": "SONAR", "assay": "Postemergence herbicidal activity in forage crops (Example IV)", "assay_type": "in vivo, Sonchus arvensis L.", "conditions": "after approximately 21 days", "description": "Seeds or root cuttings of the desired test plant species were planted in Sun Gro MetroMix® 306 planting mixture, which typically has a pH of about 6.0 to about 6.8 and an organic matter content of about 30 percent, in plastic pots with a surface area of 126.6 square centimeters (cm^2). When required to ensure good germination and healthy plants, a fungicide treatment and/or other chemical or physical treatment was applied. The plants were grown for 14-60 days in a greenhouse with an approximate 14 hour photoperiod which was maintained at about 28° C. during the day and about 24° C. during the night. Nutrients and water were added on a regular basis and supplemental lighting was provided with overhead metal halide 1000-Watt lamps as necessary. The plants were employed for testing when they reached the BBCH13 to BBCH23 leaf stage.\nTreatments consisted of the benzyl ester of 4-amino-3-chloro-5-fluoro-6-(4-chloro-2-fluoro-3-methoxy-phenyl)pyridine-2-carboxylic acid (Compound A), formulated as a SC (suspension concentrate), and a second herbicide alone and in combination.\nA measured aliquot of Compound A was placed in a 25 milliliter (mL) glass vial and diluted in a volume of 1.25% (v/v) Agri-Dex® crop oil concentrate to obtain stock solutions. Compound requirements are based upon a 12 mL application volume at a rate of 187 liters per hectare (L/ha). Spray solutions of the second cereal herbicide and experimental compound mixtures were prepared by adding the stock solutions to the appropriate amount of dilution solution to form 12 mL spray solution with active ingredients in two- and three-way combinations. Formulated compounds were applied to the plant material with an overhead Mandel track sprayer equipped with an 8002E nozzle calibrated to deliver 187 L/ha over an application area of 0.503 square meters (m^2) at a spray height of 18 inches (46 cm) above average plant canopy. Control plants were sprayed in the same manner with the solvent blank.\nThe treated plants and control plants were placed in a greenhouse as described above and watered by sub-irrigation to prevent wash-off of the test compounds. After approximately 21 days, the condition of the test plants, as compared with that of the control plants, was determined visually and scored on a scale of 0 to 100 percent where 0 corresponds to no injury and 100 corresponds to complete kill.\nColby's equation was used to determine the herbicidal effects expected from the mixtures (Colby, S. R. 1967. Calculation of the synergistic and antagonistic response of herbicide combinations. Weeds 15:20-22.).\nThe following equation was used to calculate the expected activity of mixtures containing two active ingredients, A and B: Expected=A+B−(A×B/100)"}, "LEFCH": {"test_system": "LEFCH", "assay": "In-water applied, transplanted paddy rice weeds (Example II)", "assay_type": "in vivo, Leptochloa chinensis (L.) Nees", "description": "Weed seeds or nutlets of the desired test plant species were planted in puddled soil (mud) prepared by mixing a shredded, non-sterilized mineral soil (50.5 percent silt, 25.5 percent clay, and 24 percent sand, with a pH of about 7.6 and an organic matter content of about 2.9 percent) and water at a 1:1 volumetric ratio. The prepared mud was dispensed in 365 mL aliquots into 16-ounce (oz.) non-perforated plastic pots with a surface area of 86.59 square centimeters (cm^2) leaving a headspace of 3 centimeters (cm) in each pot. Mud was allowed to dry overnight prior to planting or transplanting. Rice seeds were planted in Sun Gro MetroMix® 306 planting mixture, which typically has a pH of about 6.0 to about 6.8 and an organic matter content of about 30 percent, in plastic plug trays. Seedlings at the second or third leaf stage of growth were transplanted into 860 mL of mud contained in 32-oz. non-perforated plastic pots with a surface area of 86.59 cm^2 4 days prior to herbicide application. The paddy was created by filling the headspace of the pots with 2.5 to 3 cm of water. When required to ensure good germination and healthy plants, a fungicide treatment and/or other chemical or physical treatment was applied. The plants were grown for 4-22 days in a greenhouse with an approximate 14 h photoperiod which was maintained at about 29° C. during the day and about 26° C. during the night. Nutrients were added as Osmocote® (19:6:12, N:P:K+minor nutrients) at 2 g per 16-oz. pot and 4 g per 32-oz. pot. Water was added on a regular basis to maintain the paddy flood, and supplemental lighting was provided with overhead metal halide 1000-Watt lamps as necessary. The plants were employed for testing when they reached the first through fourth true leaf stage.\nTreatments consisted of the acid or esters of 4-amino-3-chloro-5-fluoro-6-(4-chloro-2-fluoro-3-methoxy-phenyl)pyridine-2-carboxylic acid (compound A) each formulated as an SC and various herbicidal components alone and in combination. Forms of compound A were applied on an acid equivalent basis. […]\nTreatment requirements for each compound or herbicidal component were calculated based upon the rates being tested, the concentration of active ingredient or acid equivalent in the formulation, an application volume of 2 mL per component per pot, and an application area of 86.59 cm^2 per pot.\nFor formulated compounds, a measured amount was placed in an individual 100 or 200 mL glass vial and was dissolved in a volume of 1.25% (v/v) Agri-Dex® crop oil concentrate to obtain application solutions. […]"}},
  "data": [
    {"smiles": "Cc1cnc(C2=NC(C)(C(C)C)C(=O)N2)c(C(=O)O)c1.N", "note": "(racemic) [Imazapic ammonium, ammonium (±)-2-[4,5-dihydro-4-methyl-4-(1-methylethyl)-5-oxo-1H-imidazol-2-yl]-5-methyl-3-pyridinecarboxylic acid]", "values": [
      {"measurement": "SONAR Obs", "setting": "SONAR; Imazapic ammonium 17.5 gae/ha", "result": 0, "unit": "%"}
    ]},
    {"smiles": "CCc1cnc(C2=NC(C)(C(C)C)C(=O)N2)c(C(=O)O)c1.N", "note": "(racemic) [Imazethapyr ammonium, ammonium (±)-2-[4,5-dihydro-4-methyl-4-(1-methylethyl)-5-oxo-1H-imidazol-2-yl]-5-ethyl-3-pyridinecarboxylate]", "values": [
      {"measurement": "Visual Weed Control (%) - 25 DAA LEFCH Obs", "setting": "LEFCH; Imazethapyr ammonium 8.75 gae/ha", "result": 0, "unit": "%"},
      {"measurement": "Visual Weed Control (%) - 25 DAA LEFCH Obs", "setting": "LEFCH; Imazethapyr ammonium 17.5 gae/ha", "result": 0, "unit": "%"},
      {"measurement": "Visual Weed Control (%) - 25 DAA LEFCH Obs", "setting": "LEFCH; Imazethapyr ammonium 35 gae/ha", "result": 95, "unit": "%"}
    ]},
    {"smiles": "COc1c(Cl)ccc(-c2nc(C(=O)OCc3ccccc3)c(Cl)c(N)c2F)c1F", "note": "[Compound A Benzyl Ester, benzyl ester of 4-amino-3-chloro-5-fluoro-6-(4-chloro-2-fluoro-3-methoxy-phenyl)pyridine-2-carboxylic acid]", "values": [
      {"measurement": "Visual Weed Control (%) - 25 DAA LEFCH Obs", "setting": "LEFCH; Compound A Benzyl Ester 8.75 gae/ha", "result": 0, "unit": "%"},
      {"measurement": "SONAR Obs", "setting": "SONAR; Compound A Benzyl Ester 4.4 gae/ha", "result": 65, "unit": "%"},
      {"measurement": "SONAR Obs", "setting": "SONAR; Compound A Benzyl Ester 8.8 gae/ha", "result": 100, "unit": "%"},
      {"measurement": "SONAR Obs", "setting": "SONAR; Compound A Benzyl Ester 17.5 gae/ha", "result": 95, "unit": "%"}
    ]}
  ]
}
